Patent US20130288982A1, “THERAPEUTIC AGENT FOR PULMONARY SMALL CELL CARCINOMA” (TOKYO WOMEN'S MEDICAL UNIVERSITY, priority 2009, published 2013)
No end group written: not given here.

Tests used:
[1] = tested on: human prostate cancer cell line PC-3; assay: Inhibition of proliferation of cancer cells (XTT based Cell Proliferation Kit), PC-3; conditions: peptide added, incubation at 37° C. for three days; data not shown
Procedure: (§1) The human pulmonary small cell carcinoma cell line RERF-LC-MA, the human prostate cancer cell line PC-3, and the human breast cancer cell line MCF-7 were used as the cancer cells.
(§2) A 96-well plate was inoculated with the above-mentioned cells at a density of 0.6×10^3 to 1.0×10^3 cells per well, and then cultured at 37° C. for three days. Then, cell proliferation was quantified using the Cell Proliferation Kit (XTT based).
(§3) Next, the above-mentioned peptides were separately added to the culture system at concentrations of 0 μg/mL, 1 μg/mL, 5 μg/mL and 10 μg/m, followed by incubation at 37° C. for three days. After completion of the incubation, the number of cancer cells was counted.

[2] = tested on: mRNA of the VEGFR1, RECK, MMP9 and MMP14 in the osteoclasts; assay: mRNA expression of molecule groups in osteoclasts by qPCR; assay type: cell-based; conditions: peptide A vs scrambled peptide, 24 hours after addition
Procedure: (§4) The peptides were added to the cancer cells and osteoclasts to determine a change in the expression of each molecular group resulting from the interaction between the peptide and the cancer cells or between the peptide and osteoclasts by confirming the expression of mRNA using quantitative polymerase chain reaction (qPCR).
The following molecule groups were used which are expressed in the cancer cells and/or osteoclasts as reported in Yoko Morioka et al.: “The roles of MMPs and RECK in cancer progression”, Cell Technology. Vol. 28, No. 7, 659-679 (2009).
(§5) The cancer cells and the osteoclasts were separately inoculated into a 6-well plate at a density of 1×10^5 to 2×10^5 cells per well. Twenty-four hours later, the medium was changed to D-MEM (1% FCS, 2 mM L-glu). Another 24 hours later, the medium was changed, and at the same time the peptide A or the control was added. After 24 hours, the cells were collected and extraction of the RNA was conducted.

[3] = tested on: GAPDH mRNA in RERF-LC-MA cell; assay: GAPDH mRNA expression in cancer cells by qPCR; assay type: cell-based, human; conditions: RERF-LC-MA cell (only in this cancer cell line), 24 hours after addition
Procedure: as §4
As the cancer cells, those as shown in Example 1 were used.
as §5

[4] = tested on: human breast cancer cell line MCF-7; assay: Inhibition of proliferation of cancer cells (XTT based Cell Proliferation Kit), MCF-7; conditions: peptide added, incubation at 37° C. for three days; data not shown
Procedure: as §1, §2, §3

[5] = tested on: human pulmonary small cell carcinoma cell line RERF-LC-MA; assay: Inhibition of proliferation of cancer cells (XTT based Cell Proliferation Kit), RERF-LC-MA; conditions: peptide added at 5 μg/mL or 10 μg/m, incubation at 37° C. for three days; p=0.031 vs scrambled peptide control
Procedure: as §1, §2, §3

GQNGSTPDGSTHFPSWEMAANEPLKTHRE [peptide A, 29-mer peptide derived from the TCTA protein, containing extracellular domain GQN]
inhibitory effect on proliferation of the PC-3 cells [1]: almost no inhibitory effect
expression of mRNA of MMP9 in the osteoclasts [2]: no significant difference
expression of mRNA of MMP14 in the osteoclasts [2]: no significant difference
expression of mRNA of RECK in the osteoclasts [2]: no significant difference
expression of mRNA of VEGFR1 in the osteoclasts [2]: no significant difference
GAPDH mRNA expression [3]: reduced
inhibitory effect on proliferation of the MCF-7 cells [4]: almost no inhibitory effect
proliferation of the RERF-LC-MA cells (reduced to) [5]: about 85%
